The supplement of paper PMC10627819

Assays:
S. aureus DSM 20231 [1] = test: Bliss interaction score (quartile over a dose matrix) (fitness difference); higher = more antagonism (negative = synergy)
Summary of the method: (§1)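 Fitness was defined as normalised growth: OD595 at the start of stationary phase divided by the plate's robust no-drug mean and capped at 1. Single-drug fitness was inferred from combination measurements. The Bliss score is observed fitness minus the product of the single-drug values, summarised by quartiles across technical, biological and donor/recipient replicates.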

S. aureus Newman [2] = test: as above
Summary of the method: as §1

S. pneumoniae D39V [3] = test: as above
Summary of the method: as §1

B. subtilis 168 [4] = test: as above
Summary of the method: as §1

S. aureus Newman [5] = test: fitness (endpoint OD595 vs no drug) (fraction); higher = more growth
Summary of the method: (§2)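 Bacterial fitness was scored as optical density at the stationary-phase transition relative to the robust mean of no-drug control wells. Scores are capped at 1. The growth data were OD595 readings every 30 min for 14 h at 37 °C, background-subtracted against the first reading, from 384-well plates inoculated at OD595 0.01 in TSB, LB Lennox or CY.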

S. pneumoniae D39V [6] = test: as above
Summary of the method: as §2

B. subtilis 168 [7] = test: as above
Summary of the method: as §2

S. aureus DSM 20231 [8] = test: as above
Summary of the method: as §2
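Wherever Bliss interaction score (quartile over a dose matrix) is given: first quartile when negative (synergy) and third quartile when positive (antagonism).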
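Wherever fitness (endpoint OD595 vs no drug) is given: OD595 on entry to stationary phase over no-drug wells; at most 1.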

CN[C@@H]1[C@H](O[C@H]2[C@H](O[C@H]3[C@H](O)[C@@H](O)[C@H](N=C(N)N)[C@@H](O)[C@@H]3N=C(N)N)O[C@@H](C)[C@]2(O)C=O)O[C@@H](CO)[C@H](O)[C@H]1O [Streptomycin] + CN(N=O)C(=O)N[C@@H](C=O)[C@@H](O)[C@H](O)[C@H](O)CO [Streptozotocin]
Conditions | Bliss interaction score
B. subtilis 168 [4] | -0.134
S. aureus DSM 20231 [1] | -0.109
S. aureus Newman [2] | 0.0357
S. pneumoniae D39V [3] | 0.062

fitness
Conditions | first compound 1 µg/mL | first compound 2 µg/mL | first compound 4 µg/mL | first compound 8 µg/mL
B. subtilis 168 [7], partner 0.15 µg/mL | – | 0.954 | 0.308 | 0.0987
B. subtilis 168 [7], partner 0.3 µg/mL | – | 0.978 | 0.332 | 0.0267
B. subtilis 168 [7], partner 0.6 µg/mL | – | 0.98 | 0.266 | 0.0223
S. aureus Newman [5], partner 0.15 µg/mL | 0.884 | 0.818 | – | –
S. aureus Newman [5], partner 0.3 µg/mL | 0.767 | 0.649 | – | –
S. aureus Newman [5], partner 0.6 µg/mL | 0.555 | 0.485 | 0.473 | –
S. pneumoniae D39V [6], partner 1.2 µg/mL | – | 0.988 | 0.975 | 0.896
S. pneumoniae D39V [6], partner 2.4 µg/mL | – | 0.945 | 0.932 | 0.951
S. pneumoniae D39V [6], partner 4.8 µg/mL | – | 0.954 | 0.958 | 0.903

S. pneumoniae D39V [6], first compound 16 µg/mL, one replicate
Conditions | fitness
partner 1.2 µg/mL | 0.744
partner 2.4 µg/mL | 0.773
partner 4.8 µg/mL | 0.782

CC(=O)NC[C@H]1CN(c2ccc(N3CCOCC3)c(F)c2)C(=O)O1 [Linezolid] + COc1c(N2C[C@@H]3CCCN[C@@H]3C2)c(F)cc2c(=O)c(C(=O)O)cn(C3CC3)c12 [Moxifloxacin]
Conditions | Bliss interaction score
B. subtilis 168 [4] | 0.0351
S. aureus DSM 20231 [1] | 0.0931
S. aureus Newman [2] | 0.074
S. pneumoniae D39V [3] | 0.0972

Conditions | fitness
B. subtilis 168 [7], first compound 0.125 µg/mL, partner 0.0312 µg/mL | 0.0559
B. subtilis 168 [7], first compound 0.125 µg/mL, partner 0.0625 µg/mL | 0.0387
B. subtilis 168 [7], first compound 0.125 µg/mL, partner 0.125 µg/mL | 0.0364
B. subtilis 168 [7], first compound 0.125 µg/mL, partner 2 µg/mL | 0.036
B. subtilis 168 [7], first compound 0.125 µg/mL, partner 4 µg/mL | 0.0272
B. subtilis 168 [7], first compound 0.125 µg/mL, partner 8 µg/mL | 0.0181
B. subtilis 168 [7], first compound 0.25 µg/mL, partner 0.0312 µg/mL | 0.242
B. subtilis 168 [7], first compound 0.25 µg/mL, partner 0.0625 µg/mL | 0.0554
B. subtilis 168 [7], first compound 0.25 µg/mL, partner 0.125 µg/mL | 0.0577
B. subtilis 168 [7], first compound 0.25 µg/mL, partner 2 µg/mL | 0.0241
B. subtilis 168 [7], first compound 0.25 µg/mL, partner 4 µg/mL | 0.0237
B. subtilis 168 [7], first compound 0.25 µg/mL, partner 8 µg/mL | 0.0144
B. subtilis 168 [7], first compound 0.5 µg/mL, partner 0.0312 µg/mL | 0.044
B. subtilis 168 [7], first compound 0.5 µg/mL, partner 0.0625 µg/mL | 0.0596
B. subtilis 168 [7], first compound 0.5 µg/mL, partner 0.125 µg/mL | 0.0457
B. subtilis 168 [7], first compound 0.5 µg/mL, partner 2 µg/mL | 0.0308
B. subtilis 168 [7], first compound 0.5 µg/mL, partner 4 µg/mL | 0.021
B. subtilis 168 [7], first compound 0.5 µg/mL, partner 8 µg/mL | 0.0223
S. aureus DSM 20231 [8], first compound 0.125 µg/mL, partner 0.0075 µg/mL | 0.795
S. aureus DSM 20231 [8], first compound 0.125 µg/mL, partner 0.015 µg/mL | 0.743
S. aureus DSM 20231 [8], first compound 0.125 µg/mL, partner 0.03 µg/mL | 0.671
S. aureus DSM 20231 [8], first compound 0.25 µg/mL, partner 0.0075 µg/mL | 0.541
S. aureus DSM 20231 [8], first compound 0.25 µg/mL, partner 0.015 µg/mL | 0.5
S. aureus DSM 20231 [8], first compound 0.25 µg/mL, partner 0.03 µg/mL | 0.582
S. aureus DSM 20231 [8], first compound 0.5 µg/mL, partner 0.0075 µg/mL | 0.12
S. aureus DSM 20231 [8], first compound 0.5 µg/mL, partner 0.015 µg/mL | 0.178
S. aureus DSM 20231 [8], first compound 0.5 µg/mL, partner 0.03 µg/mL | 0.272
S. pneumoniae D39V [6], first compound 0.105 µg/mL, partner 0.0037 µg/mL | 0.739
S. pneumoniae D39V [6], first compound 0.105 µg/mL, partner 0.0075 µg/mL | 0.741
S. pneumoniae D39V [6], first compound 0.105 µg/mL, partner 0.015 µg/mL | 0.73
S. pneumoniae D39V [6], first compound 0.2 µg/mL, partner 0.005 µg/mL | 0.839
S. pneumoniae D39V [6], first compound 0.2 µg/mL, partner 0.01 µg/mL | 0.858
S. pneumoniae D39V [6], first compound 0.2 µg/mL, partner 0.02 µg/mL | 0.826
S. pneumoniae D39V [6], first compound 0.21 µg/mL, partner 0.0037 µg/mL | 0.647
S. pneumoniae D39V [6], first compound 0.21 µg/mL, partner 0.0075 µg/mL | 0.651
S. pneumoniae D39V [6], first compound 0.21 µg/mL, partner 0.015 µg/mL | 0.624
S. pneumoniae D39V [6], first compound 0.4 µg/mL, partner 0.005 µg/mL | 0.704
S. pneumoniae D39V [6], first compound 0.4 µg/mL, partner 0.01 µg/mL | 0.715
S. pneumoniae D39V [6], first compound 0.4 µg/mL, partner 0.02 µg/mL | 0.68
S. pneumoniae D39V [6], first compound 0.42 µg/mL, partner 0.0037 µg/mL | 0.366
S. pneumoniae D39V [6], first compound 0.42 µg/mL, partner 0.0075 µg/mL | 0.424
S. pneumoniae D39V [6], first compound 0.42 µg/mL, partner 0.015 µg/mL | 0.449
S. pneumoniae D39V [6], first compound 0.8 µg/mL, partner 0.005 µg/mL | 0.45
S. pneumoniae D39V [6], first compound 0.8 µg/mL, partner 0.02 µg/mL | 0.461

one replicate
Conditions | fitness
B. subtilis 168 [7], first compound 0.0625 µg/mL, partner 0.0312 µg/mL | 0.0541
B. subtilis 168 [7], first compound 0.0625 µg/mL, partner 0.0625 µg/mL | 0.0464
B. subtilis 168 [7], first compound 0.0625 µg/mL, partner 0.125 µg/mL | 0.0299
S. aureus DSM 20231 [8], first compound 0.125 µg/mL, partner 0.06 µg/mL | 0.712
S. aureus DSM 20231 [8], first compound 0.125 µg/mL, partner 0.12 µg/mL | 0.535
S. aureus DSM 20231 [8], first compound 0.25 µg/mL, partner 0.06 µg/mL | 0.655
S. aureus DSM 20231 [8], first compound 0.25 µg/mL, partner 0.12 µg/mL | 0.536
S. aureus DSM 20231 [8], first compound 0.5 µg/mL, partner 0.06 µg/mL | 0.44
S. aureus DSM 20231 [8], first compound 0.5 µg/mL, partner 0.12 µg/mL | 0.368
S. aureus DSM 20231 [8], first compound 1 µg/mL, partner 0.0075 µg/mL | 0.0168
S. aureus DSM 20231 [8], first compound 1 µg/mL, partner 0.015 µg/mL | 0.0282
S. aureus DSM 20231 [8], first compound 1 µg/mL, partner 0.03 µg/mL | 0.0258
